Consider eight compounds from the NIST ThermoML archive (doi:10.1021/acs.jced.8b00120).

Numbers after ± are expanded uncertainties.

Series [1] can be described thus: refractive index (Na D-line) (dimensionless). To be noted: 298.15 K; 101.33 kPa; Liquid; Standard Abbe refractometry.
The conditions of series [2]: 298.15 K; 101.33 kPa; Liquid; Buoyancy - hydrostatic balance.

Broadly, the refractive index is the speed of light in vacuum divided by its phase velocity in the sample. In general, mass density refers to mass per unit of volume.

As to `CC(C)CO` [2-methyl-1-propanol], in series [1], the refractive index is on record as 1.394 ± 0.0011. For the same compound, the mass density in series [2] is on record as 801.652 ± 10 kg/m3.
The matching figures for `CC(=O)CC(C)C` [4-methylpentan-2-one]: 1.3964 ± 0.0011 and 800.589 ± 10 kg/m3.
With `CC#N` [acetonitrile], in series [1], the refractive index is 1.3452 ± 0.001. Moreover, the mass density in series [2] is given as 785.712 ± 10 kg/m3.
For the compound `CCCCO` [butan-1-ol], in series [1], the refractive index is reported as 1.3975 ± 0.0011. Besides, the mass density in series [2] is on record as 805.881 ± 10 kg/m3.
Turning to `CN(C)C=O` [dimethylformamide], the refractive index in series [1] is on record as 1.4279 ± 0.0011. Also, the mass density in series [2] came out at 944.689 ± 10 kg/m3.
Consider `CC(C)c1ccccc1` [isopropylbenzene], for which the refractive index in series [1] is recorded as 1.4907 ± 0.0011. For the same compound, the mass density in series [2] came to 864.115 ± 10 kg/m3.
The matching figures for `CO` [methanol]: 1.3279 ± 0.0011 and 791.814 ± 10 kg/m3.
For `O` [water], the refractive index in series [1] came to 1.3324 ± 0.001.
